Measurements reported in US20230312605A1, “PYRROLO[2,1-F][1,2,4]TRIAZINES AND PREPARATION AND USES THEREOF” (BioSplice Therapeutics, Inc., priority 2021, published 2023).
pEC50: −log10 of the molar value.

Biological target: recombinant DYRK1A kinase (Homo sapiens (Human), UniProt Q13627)
Assay: DYRK1A kinase assay (Ser/Thr 18 peptide Z-lyte FRET assay)
Assay type: biochemical
Settings: recombinant DYRK1A 0.25 µg/mL, ATP 15 µM, Ser/Thr peptide 18 4 µM, one hour at room temperature; table head prints EC50, method says IC50
How it was run: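 Recombinant human DYRK1A (0.25 µg/mL) with 15 µM ATP and 4 µM Ser/Thr 18 peptide was incubated 1 h at room temperature with compound (11-point, 10 µM top), in duplicate. Z-lyte FRET read-out (coumarin/fluorescein emission ratio) was converted to percent phosphorylation; IC50 from non-linear regression.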

`Cc1nc2ncc(-c3ccn4nc(N[C@@H]5CCN(C)C[C@H]5F)ncc34)cc2n1CC(F)F` [Compound 1885, 5-(1-(2,2-Difluoroethyl)-2-methyl-1H-imidazo[4,5-b]pyridin-6-yl)-N-((3R,4R)-3-fluoro-1-methylpiperidin-4-yl)pyrrolo[2,1-f][1,2,4]triazin-2-amine] and `Cc1nc2ccc(-c3ccn4nc(N[C@@H]5CCN(C)C[C@@H]5F)ncc34)nc2n1CC(F)F` [Compound 1853, 5-(3-(2,2-Difluoroethyl)-2-methyl-3H-imidazo[4,5-b]pyridin-5-yl)-N-((3S,4R)-3-fluoro-1-methylpiperidin-4-yl)pyrrolo[2,1-f][1,2,4]triazin-2-amine] are within 0.2 log units of each other in pEC50: 8.22 for the first, 8.30 for the second.

`Cc1nc2ccc(-c3ccn4nc(NC5CCN(C(=O)[C@H]6CC6(F)F)CC5)ncc34)nc2n1CC(F)F` [Compound 1918, (R)-(2,2-Difluorocyclopropyl)(4-((5-(3-(2,2-difluoroethyl)-2-methyl-3H-imidazo[4,5-b]pyridin-5-yl)pyrrolo[2,1-f] [1,2,4]triazin-2-yl)amino)piperidin-1-yl)methanone] and `CCC(=O)N1CCC(Nc2ncc3c(-c4ccc5nc(C)n(CC(F)F)c5n4)ccn3n2)CC1` [Compound 1858, 1-(4-((5-(3-(2,2-Difluoroethyl)-2-methyl-3H-imidazo[4,5-b]pyridin-5-yl)pyrrolo[2,1-f][1,2,4]triazin-2-yl)amino)piperidin-1-yl)propan-1-one] are the same in pEC50: 8.15 for the first, 8.15 for the second.

`Cc1nc2ncc(-c3ccn4nc(NC5CCN(C(=O)C(C)C)CC5)ncc34)cc2n1CC(F)F` [Compound 1888, 1-(4-((5-(1-(2,2-Difluoroethyl)-2-methyl-1H-imidazo[4,5-b]pyridin-6-yl)pyrrolo[2,1-f][1,2,4]triazin-2-yl)amino)piperidin-1-yl)-2-methylpropan-1-one] and `Cc1nc2ncc(-c3ccn4nc(N[C@H]5CC[C@](C)(O)CC5)ncc34)cc2n1CC(F)F` [Compound 1879, trans-4-((5-(1-(2,2-Difluoroethyl)-2-methyl-1H-imidazo[4,5-b]pyridin-6-yl)pyrrolo[2,1-f][1,2,4]triazin-2-yl)amino)-1-methylcyclohexan-1-ol] are within 0.2 log units of each other in pEC50: 8.52 for the first, 8.70 for the second.

First: FC(F)(F)CCNc1ncc2c(-c3cnc4nccn4c3)ccn2n1 [Compound 220, 5-(Imidazo[1,2-a]pyrimidin-6-yl)-N-(3,3,3-trifluoropropyl)pyrrolo[2,1-f] [1,2,4]triazin-2-amine]
Second: CC(C)(CNc1ncc2c(-c3cnc4nccn4c3)ccn2n1)C(F)(F)F [Compound 221, 5-(Imidazo[1,2-a]pyrimidin-6-yl)-N-(3,3,3-trifluoro-2,2-dimethylpropyl) pyrrolo[2,1-f][1,2,4]triazin-2-amine]
The pEC50 of the first is 0.31 log units higher: 7.85 for the first, 7.54 for the second.

Going from `Cc1nc2ccc(-c3ccn4nc(N[C@@H]5COC[C@H]5O)ncc34)nc2n1CC(F)F` [Compound 1906, (3S,4R)-4-((5-(3-(2,2-Difluoroethyl)-2-methyl-3H-imidazo [4,5-b]pyridin-5-yl)pyrrolo[2,1-f][1,2,4]triazin-2-yl)amino)tetrahydrofuran-3-ol] to `Cc1nc2ccc(-c3ccn4nc(N[C@@H]5CCOC[C@@H]5O)ncc34)nc2n1CC(F)F` [Compound 1865, (3R,4R)-4-((5-(3-(2,2-Difluoroethyl)-2-methyl-3H-imidazo[4,5-b]pyridin-5-yl)pyrrolo[2,1-f][1,2,4]triazin-2-yl)amino)tetrahydro-2H-pyran-3-ol], the pEC50 falls from 8.40 to 7.70 (0.70 log units). The first is the more potent here.

Going from `FC(F)(F)C1(CNc2ncc3c(-c4cnc5nccn5c4)ccn3n2)CC1` [Compound 226, 5-(Imidazo[1,2-a]pyrimidin-6-yl)-N-((1-(trifluoromethyl)cyclopropyl)methyl)pyrrolo[2,1-f][1,2,4]triazin-2-amine] to `FC1(CNc2ncc3c(-c4cnc5nccn5c4)ccn3n2)CCC1` [Compound 227, N-((1-Fluorocyclobutyl)methyl)-5-(imidazo[1,2-a]pyrimidin-6-yl)pyrrolo [2,1-f][1,2,4]triazin-2-amine], the pEC50 rises from 7.96 to 8.40 (0.44 log units).

First: Cc1nc2ccc(-c3ccn4nc(NC5CCC6(CC5)OCCO6)ncc34)nc2n1CC(F)F [Compound 1847]
Second: Cc1nc2ncc(-c3ccn4nc(NC5CCC6(CC5)OCCO6)ncc34)cc2n1CC(F)F [Compound 1880, 5-(1-(2,2-Difluoroethyl)-2-methyl-1H-imidazo[4,5-b]pyridin-6-yl)-N-(1,4-dioxaspiro[4.5]decan-8-yl)pyrrolo[2,1-f][1,2,4]triazin-2-amine]
The pEC50 of the first is 0.22 log units lower: 8.30 for the first, 8.52 for the second.

Going from `Cc1cnc2ncc(-c3ccn4nc(NCC(C)(C)F)ncc34)cn12` [Compound 358, N-(2-Fluoro-2-methylpropyl)-5-(3-methylimidazo[1,2-a]pyrimidin-6-yl) pyrrolo[2,1-f] [1,2,4]triazin-2-amine] to `Cn1nnc2ccc(-c3ccn4nc(NCC(C)(C)F)ncc34)cc21` [Compound 1210, N-(2-Fluoro-2-methylpropyl)-5-(1-methyl-1H-benzo[d][1,2,3]triazol-6-yl) pyrrolo[2,1-f][1,2,4]triazin-2-amine], the pEC50 falls from 7.60 to 7.18 (0.42 log units). The first is the more potent here.

Compared with `Cc1nc2ccc(-c3ccn4nc(NC5CCOCC5)ncc34)nc2n1CC(C)(C)O` [Compound 1871, 2-Methyl-1-(2-methyl-5-(2-((tetrahydro-2H-pyran-4-yl)amino)pyrrolo[2,1-f][1,2,4]triazin-5-yl)-3H-imidazo[4,5-b]pyridin-3-yl)propan-2-ol], `Cc1nc2ccc(-c3ccn4nc(NC5CCN(C(=O)C(C)C)CC5)ncc34)nc2n1CC(F)F` [Compound 1859, 1-(4-((5-(3-(2,2-Difluoroethyl)-2-methyl-3H-imidazo[4,5-b]pyridin-5-yl)pyrrolo[2,1-f][1,2,4]triazin-2-yl)amino)piperidin-1-yl)-2-methylpropan-1-one] is 0.96 log units higher in pEC50: 7.14 for the first, 8.10 for the second. The second is the more potent here.

Going from `CO[C@H]1CC[C@@H](Nc2ncc3c(-c4cnc5ncccc5c4)ccn3n2)CC1` [Compound 1537, N-(cis-4-Methoxycyclohexyl)-5-(1,8-naphthyridin-3-yl)pyrrolo[2,1-f] [1,2,4]triazin-2-amine] to `CCO[C@H]1CC[C@@H](Nc2ncc3c(-c4cnc5nccn5c4)ccn3n2)CC1` [Compound 263, N-(cis-4-Ethoxycyclohexyl)-5-(imidazo[1,2-a]pyrimidin-6-yl)pyrrolo[2,1-f][1,2,4]triazin-2-amine], the pEC50 falls from 8.52 to 8.22 (0.30 log units). The first is the more potent here.

Compared with `Cc1nc2ncc(-c3ccn4nc(NCC(C)(C)F)ncc34)cc2n1CC(F)F` [Compound 642, 5-(1-(2,2-difluoroethyl)-2-methyl-1H-imidazo[4,5-b]pyridin-6-yl)-N-(2-fluoro-2-methylpropyl)pyrrolo[2,1-f][1,2,4]triazin-2-amine], `Cc1nc2c(F)cc(-c3ccn4nc(NCC(C)(C)F)ncc34)cc2n1C(C)C` [Compound 500] is 1.04 log units lower in pEC50: 8.40 for the first, 7.36 for the second. The first is the more potent here.

`Cc1nc2ncc(-c3ccn4nc(N[C@H]5CC[C@@H](OC(F)(F)F)CC5)ncc34)nc2n1CC(F)F` [Compound 1970, 5-(1-(2,2-Difluoroethyl)-2-methyl-1H-imidazo[4,5-b]pyrazin-6-yl)-N-(cis-4-(trifluoromethoxy)cyclohexyl)pyrrolo[2,1-f][1,2,4]triazin-2-amine] and `Cc1nc2ncc(-c3ccn4nc(N[C@H]5CC[C@@H](OC(F)(F)F)CC5)ncc34)cc2n1CC(F)F` [Compound 1786, 5-(1-(2,2-Difluoroethyl)-2-methyl-1H-imidazo[4,5-b]pyridin-6-yl)-N-(cis-4-(trifluoromethoxy)cyclohexyl)pyrrolo[2,1-f][1,2,4]triazin-2-amine] are within 0.2 log units of each other in pEC50: 8.15 for the first, 8.30 for the second.

First: Cc1nc2ccc(-c3ccn4nc(N[C@H]5CC[C@@H](OCC(F)F)CC5)ncc34)nc2n1CC(F)F [Compound 1838]
Second: CC(=O)N[C@H]1CC[C@H](Nc2ncc3c(-c4ccc5nc(C)n(CC(F)F)c5n4)ccn3n2)CC1 [Compound 1844, N-(trans-4-((5-(3-(2,2-Difluoroethyl)-2-methyl-3H-imidazo[4,5-b]pyridin-5-yl)pyrrolo[2,1-f][1,2,4]triazin-2-yl)amino)cyclohexyl)acetamide]
The pEC50 of the first is 0.30 log units lower: 8.22 for the first, 8.52 for the second. The second is the more potent here.

Going from `Cc1nc2ccc(-c3ccn4nc(N[C@@H]5CCOC[C@H]5F)ncc34)nc2n1CC(F)F` [Compound 1912, 5-(3-(2,2-Difluoroethyl)-2-methyl-3H-imidazo[4,5-b]pyridin-5-yl)-N-((3S,4R)-3-fluorotetrahydro-2H-pyran-4-yl)pyrrolo[2,1-f] [1,2,4]triazin-2-amine] to `CO[C@@H]1COCC[C@H]1Nc1ncc2c(-c3ccc4nc(C)n(CC(F)F)c4n3)ccn2n1` [Compound 1867, 5-(3-(2,2-Difluoroethyl)-2-methyl-3H-imidazo[4,5-b]pyridin-5-yl)-N-((3S,4R)-3-methoxytetrahydro-2H-pyran-4-yl)pyrrolo[2,1-f][1,2,4]triazin-2-amine], the pEC50 falls from 8.15 to 7.49 (0.66 log units).

Going from `CC(C)OCCNc1ncc2c(-c3ccc4nccn4c3)ccn2n1` [Compound 11, 5-(Imidazo[1,2-a]pyridin-6-yl)-N-(2-isopropoxyethyl)pyrrolo[2,1-f][1,2,4] triazin-2-amine] to `COCCO[C@H]1CC[C@@H](Nc2ncc3c(-c4cnc5nccn5c4)ccn3n2)CC1` [Compound 265, 5-(Imidazo[1,2-a]pyrimidin-6-yl)-N-(cis-4-(2-methoxyethoxy)cyclohexyl) pyrrolo[2,1-f] [1,2,4]triazin-2-amine], the pEC50 rises from 6.94 to 8.22 (1.28 log units).

First: CCn1c(C)nc2ccc(-c3ccn4nc(NCC(C)(C)F)ncc34)nc21 [Compound 926, 5-(3-Ethyl-2-methyl-3H-imidazo[4,5-b]pyridin-5-yl)-N-(2-fluoro-2-methylpropyl)pyrrolo[2,1-f][1,2,4]triazin-2-amine]
Second: Cc1nc2ccc(-c3ccn4nc(N[C@@H]5CN(C)C[C@@H]5F)ncc34)nc2n1CC(F)F [Compound 1900]
The pEC50 of the first is 0.73 log units lower: 7.57 for the first, 8.30 for the second. The second is the more potent here.

`CC(=O)N[C@]1(C)C[C@@H](Nc2ncc3c(-c4ccn5nccc5c4)ccn3n2)C1` [Compound 1983, N-(trans-1-Methyl-3-((5-(pyrazolo[1,5-a]pyridin-5-yl)pyrrolo[2,1-f][1,2,4]triazin-2-yl)amino)cyclobutyl)acetamide] showed a pEC50 of 9.00.
